According to publication PMC10388363, “Novel 1,4-Dihydropyridines as Specific Binders and Activators of SIRT3 Impair Cell Viability and Clonogenicity and Downregulate Hypoxia-Induced Targets in Cancer Cells” (Journal of Medicinal Chemistry, 2023):
Each block holds one compound with its values, some of them ahead of it.

How the values were obtained:
[1] = system: HIF-1α, EPAS-1, and CA-IX protein expression in MDA-MB-231; assay: Western blot of HIF-1α, EPAS-1 and CA-IX in MDA-MB-231 cells under hypoxia; type: cell-based, human; details: MDA-MB-231, hypoxia, negative control SIRT3 inhibitor
Procedure: (§1) Based on these findings, we decided to assess the ability of the SIRT3 activators 3a–d to impair HIF-1α, EPAS-1, and CA-IX protein expression in CAL-62 (Figure 10A–F) and MDA-MB-231 (Figure 11A–F) cell lines treated with the compounds at 50 μM for 48 h and under hypoxia conditions.
(§2) Breast cancer cell line MDA-MB-231, anaplastic thyroid cancer cell line CAL-62 and human keratinocytes HaCaT were purchased from ATCC and were cultured in RPMI 1640 medium (R0883 Sigma Aldrich-MERCK) (MDA-MB-231 and CAL-62) or DMEM medium (11965092, Gibco) supplemented with 10% fetal bovine serum (Sigma-Aldrich-MERCK, F9665), 2 mM glutamine (G7513; Sigma-Aldrich-MERCK), 100 units/mL penicillin and 0.1 mg/mL streptomycin (P0781; Sigma-Aldrich-MERCK). Adherent cells were detached by Trypsin–EDTA solution (TA049; Sigma-Aldrich-MERCK). Cells were maintained at 37 °C in humidified incubator with 5% CO2. Cells were treated with […] (CoCl2) (Merck; C8661) dissolved in distilled, sterile water for 24 h to induce hypoxia (200 μM). Hypoxic and normoxic cells were also treated with 10/50 μM of the indicated compounds (dissolved in DMSO) for 48 h, maintaining the CoCl2 in the culture medium for hypoxic conditions. SIRT3 inhibitor 3-TYP was dissolved in DMSO and added to a final concentration of 1 μM for 24 and/or 48 h.
(§3) The following antibodies were used in this study: ACTB (Merck; A5316), HIF1-α (Cell Signaling; 14179), HIF2/EPAS-1 (Santa Cruz Biotechnology sc-13596), HXKII (Santa Cruz Biotechnology sc-6521), CAIX (Novus Biotechnology NB100-417), SIRT3 (Cell Signaling; 2627S), MnSOD (Abcam ab13533), MnSOD K68 (Abcam ab137037), MnSOD K122 (Abcam ab214675), peroxidase-conjugated AffiniPure Goat Anti-Rabbit IgG (H + L) (Jackson ImmunoResearch; 111-035-003), and peroxidase-conjugated AffiniPure Goat Anti-Mouse IgG (H + L) (Jackson ImmunoResearch; 115-035-062).
(§4) Treated and untreated cells were collected and centrifuged at 3000 rpm for 5 min. After removing the supernatant, cells were lysed in 70 μL of lysis buffer containing: 50 mM Tris-Cl (Merck; 93352), 250 mM sodium chloride (NaCl, Merck; S7653), 5 mM ethylenediaminetetraacetic acid (EDTA; Merck; E6758), 0.1% Triton X-100 and 0.1 mM dithiothreitol (Merck; D9163) plus 1 mM phenylmethylsulfonyl fluoride (PMSF, Merck; 93482), protease inhibitor cocktail (PI; Merck; P8340), 1 mM sodium orthovanadate (NA3VO4, Merck; S6508), and 10 mM sodium fluoride (NaF, Merck; 201154) (lysis buffer). After 30 min on ice, samples were centrifuged at 13,000 rpm for 10 min at 4 °C, and the supernatants collected. Protein concentration was determined by the Bradford assay (Bio-Rad; 500-0205). The equivalent of 15 or 50 μg of protein was boiled for 5 min, electrophoresed onto denaturing SDS-PAGE gel, and transferred onto a […] nitrocellulose membrane (Bio-Rad; 162-0115). After blocking with 5% milk, membranes were incubated with the appropriate primary antibody overnight. The next day, after three washes with 0.1% Tween 20 (Merck; P9416) in PBS (PBST) for 30 min at rt, membranes were incubated with the appropriate secondary antibody for 1 h at rt. After three more washes in PBST, the detection of the relevant protein was assessed by enhanced chemiluminescence (Lite Ablot TURBO, Euro-Clone; EMP012001). Densitometric analysis of the bands, relative to ACTB, was performed using ImageJ Software v1.51 (NIH, Bethesda, MD, USA).

[2] = system: acK68- and acK122-MnSOD in MDA-MB-231 cells; assay: Western blot of MnSOD acK68 and acK122 marks in MDA-MB-231 cells; type: cell-based, human; details: MDA-MB-231, negative control SIRT3 inhibitor
Procedure: (§5) K68-MnSOD acetylation promotes a transformation-permissive phenotype, leading to a chemotherapy-resistant breast cancer cell model using cisplatin and doxorubicin.[68] […] The specific SIRT3 inhibitor 3-TYP was utilized as negative control.
as §2, with “Hypoxic and normoxic cells were also treated with 10/50 μM of the indicated compounds (dissolved in DMSO) for 48 h, maintaining the CoCl2 in the culture medium for hypoxic conditions. SIRT3 inhibitor 3-TYP was dissolved in DMSO and added to a final concentration of 1 μM for 24 and/or 48 h.” left out
as §3
(§6) Treated and untreated cells were collected and centrifuged at 3000 rpm for 5 min. […] Protein concentration was determined by the Bradford assay (Bio-Rad; 500-0205). […] After three more washes in PBST, the detection of the relevant protein was assessed by enhanced chemiluminescence (Lite Ablot TURBO, Euro-Clone; EMP012001). […]

[3] = system: acK68- and acK122-MnSOD in CAL-62 cells; assay: Western blot of MnSOD acK68 and acK122 marks in CAL-62 cells; type: cell-based; details: CAL-62, negative control SIRT3 inhibitor
Procedure: as §5
as §2, with “Hypoxic and normoxic cells were also treated with 10/50 μM of the indicated compounds (dissolved in DMSO) for 48 h, maintaining the CoCl2 in the culture medium for hypoxic conditions. SIRT3 inhibitor 3-TYP was dissolved in DMSO and added to a final concentration of 1 μM for 24 and/or 48 h.” left out
as §6

[4] = system: HIF-1α, EPAS-1, and CA-IX protein expression in CAL-62; assay: Western blot of HIF-1α, EPAS-1 and CA-IX in CAL-62 cells under hypoxia; type: cell-based
Procedure: as §1, §2, §3, §4

[5] = biological target: T1, human SIRT3 (Homo sapiens, UniProt Q9NTG7); parameters: method as in PMID 36228194; details: 100 μM; cited from earlier work
T1 construct: pET151D/Topo (Sirt3-114-380 and Sirt5-34-302); His tag (N, cleaved yes); made in house; host or cells: Escherichia coli
T1 sequence (Q9NTG7 114-380): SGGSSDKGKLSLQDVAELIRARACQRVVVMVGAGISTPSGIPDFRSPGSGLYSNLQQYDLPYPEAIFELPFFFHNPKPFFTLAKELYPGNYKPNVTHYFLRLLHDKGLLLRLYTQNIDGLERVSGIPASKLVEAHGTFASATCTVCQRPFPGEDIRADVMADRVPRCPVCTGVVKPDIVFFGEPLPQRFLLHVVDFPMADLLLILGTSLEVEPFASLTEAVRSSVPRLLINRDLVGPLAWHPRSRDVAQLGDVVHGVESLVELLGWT

[6] = biological target: T1, human SIRT3; assay: Surface plasmon resonance binding assay, immobilized SIRT3; details: SPR, Scatchard analysis, analytes 5-80 μM
Procedure: Next, surface plasmon resonance (SPR) experiments were conducted with selected SIRT3 activators 2e and 3a–d to ascertain their biophysical interaction with the human SIRT3 protein. Their parental compounds 2 and 3, together with honokiol, were used as positive controls. The experiments were carried out twice at different concentrations (5, 10, 20, 40, and 80 μM), by injecting the compounds at increasing doses (Figure 5). The resonance units (RU) increase with respect to baseline indicates the formation of the SIRT3/ligand complex, the plateau region represents the steady-state phase of the interaction (RUeq, RU at equilibrium) and the decrease in RU after 180 s represents dissociation of analytes from the immobilized SIRT3 protein after injection of the buffer.
SPR experiments were carried out using a SensiQ Pioneer system (SensiQ, Oklahoma City, OK, USA), essentially as in Genovese et al. 2020[84] and in Battista et al. 2021,[85] with some modifications, as follows.
The sensor chip (COOH5) was chemically activated by a 35 μL injection of a 1:1 mixture of […] (200 mM) and N-hydroxysuccinimide (50 mM) at a flow rate of 5 μL/min. Sirtuin3 (ligand) was immobilized on activated sensor chips via amine coupling. Immobilization was carried out in 20 mM sodium acetate at pH 4.0; unreacted groups were blocked by injecting 1 M ethanolamine hydrochloride (35 μL). Sirtuin3 immobilization level obtained was 1500–4000 RU.
The analytes, dissolved in 100% DMSO at 10 mM concentration, were diluted in buffer 20 mM Hepes, 150 mM NaCl, 0.005% surfactant P20 buffer (HBSP) to a concentration of 200 μM (2% final DMSO concentration), further diluted in HBSP + 2% DMSO (HBSP2%D) and injected on the sensor chip at a constant flow rate (nominal flow rate = 30 μL/min) at the following concentrations: 5, 10, 20, 40, and 80 μM.
The RU increase relative to baseline indicates complex formation (taking place at known analytes concentrations at each moment in the gradient); the plateau region represents the steady-state phase of the interaction (RUeq); and the decrease in RU after 180 s represents dissociation of analytes from the immobilized Sirtiun3 after injection of HBSP2%D. Regeneration procedures are based on two long (2000 and 500 s) injections of buffer, separated by a brief (5 s) injection of 10 mM NaOH.
Control experiments were performed in sensor chips treated as described above in the absence of an immobilized ligand. Kinetic evaluation of the sensorgrams was obtained using the SensiQ Qdat program and full fitting with 1, 2, and 3 sites; Scatchard analysis was used to determine apparent KD values.

[7] = system: GDH activity in MDA-MB-231 cells; assay: GDH activity assay in lysates of treated MDA-MB-231 cells; type: cell-based, human; details: 50 μM, 4 h
Procedure: Selected compounds 3a–d were tested in triple-negative breast cancer MDA-MB-231 cells to evaluate their effects on SIRT3 physiological substrates. First, the effect on the activity of GDH (an established SIRT3 substrate activated through deacetylation[60]−[62]) was investigated by a coupled enzyme assay. […] These effects of SIRT3 activators clearly phenocopied those observed in the SIRT3-overexpressing MDA-MB-231 cells (SIRT3^+) (Figure 6).
GDH activity in cells treated or not with the SIRT3 activators 3a–d and the reference compounds 2 and 3 was measured using a GDH activity assay kit (MAK099, Merck) following the manufacturer’s instructions. Briefly, 10^6 cells were lysed in 40 μL of GDH assay buffer and kept for 10 min in ice. Afterward, lysates were centrifuged to collect supernatants. Ten microliters of supernatant were added to 40 μL of GDH buffer and 100 μL of a mix containing GDH assay buffer, developer, and glutamate. The whole mix was transferred into a 96-well plate and incubated at 37 °C for 3 min. Finally, absorbance was read at 450 nm using a GloMax multi detection system (Promega, Milan, Italy). The absorbance of the assay buffer was subtracted from each experimental sample.

Structure (SMILES): c1cncc(-c2cnn[nH]2)c1 [3-TYP, reference compound]
HIF-1α, EPAS-1, and CA-IX protein expression [1]: did not show any activity
acetylation levels of both K68 and K122 residues of MnSOD [2]: markedly increased
acetylation levels of both K68 and K122 residues of MnSOD [3]: markedly increased
HIF-1α, EPAS-1, and CA-IX protein expression ([4]; CAL-62, hypoxia, negative control SIRT3 inhibitor): negligible effects

Structure (SMILES): CCOC(=O)C1=CN(C(=O)c2cc(OC)c(OC)c(OC)c2)C=C(C(=O)OCC)C1c1ccccc1 [Compound 3]
SIRT3 activation [5]: over 400%
Kd [6]: 40 to 47 µM
GDH activation [7]: around 175%

Structure (SMILES): CCOC(=O)C1=CN(C(=O)c2ccc(OC)cc2)C=C(C(=O)OCC)C1c1ccccc1 [Compound 3b, Diethyl 1-(4-methoxybenzoyl)-4-phenyl-1,4-dihydropyridine-3,5-dicarboxylate]
CA-IX protein expression ([4]; CAL-62, 50 μM, 48 h, hypoxia): significantly downregulated
effect on GDH activity in cell lysates [7]: negligible effect

Kd [6]: 40 to 47 µM
Structure (SMILES): C=CCc1ccc(O)c(-c2ccc(O)c(CC=C)c2)c1 [honokiol]
